Data on two compounds can be found in the NIST ThermoML archive (doi:10.1021/je050039p).

The conditions of the data set: Crystal 1; visual observation.

SMILES strings stand for the structures. Numbers after ± are expanded uncertainties.

Consider `c1ccccc1` [benzene], for which the Normal melting temperature worked out at 5.90 ± 0.5 °C.
In the case of `CCCCCCCCCCCCC` [tridecane] it was -4.14 ± 0.5 °C.
